The text below walks through data of patent US4098823A, “Monospiroalkyl derivatives of prostaglandins” (Miles Laboratories, Inc., priority 1977, dated 1978).

≈ marks a conversion by molar mass, not a printed value.

In one test the test system is rat colon. As to the kind of experiment: Cascade Assay, colon (smooth muscle stimulant effect). The test is classed as cell-based. Conditions: superfused, 50% of maximum (PGF2α). How it is done: (§1) The smooth muscle stimulant effects of test compounds were determined simultaneously in four different tissues that are known to be reactive to naturally occurring prostaglandins. Segments of rat stomach fundus, rat colon, chick rectum and rabbit aortic strip were obtained as described by: Vane, J. R., Brit. J. Pharmacol., 12: 344 (1957); Regoli, D. and Vane, J. R., Brit. J. Pharmacol., 23: 351 (1964); Mann, M. and West, G. B., Brit. J. Pharmacol., 5: 173 (1950); and Furchgott, R. F. and Bhadrakom, R., J. Pharmacol. Exper. Ther., 108: 129 (1953). One end of each preparation was tied to the bottom of a 10 ml tissue chamber and the other to a force displacement transducer (Grass FT-03) for continuous tension recording. The stomach, colon, and rectum segments were stretched to an initial tension of 1 g, while the aortic strip was subjected to 4 g. All preparations were left undisturbed for 1 hour prior to testing. The chambers were equipped with an external jacket through which water, maintained at 40° C, was circulated. Preparations were arranged one beneath the other in descending order (aorta, stomach, colon and rectum). Provision was made for bathing the four tissues successively so that they were superfused with the same fluid (Gaddum, H. J., Brit. J. Pharmacol., 6: 321 [1953]. The bathing fluid consisted of: Krebs bicarbonate solution aerated with a mixture of 95% O2 and 5% CO2 and warmed at 37° C; atropine sulphate (0.1 mcg/ml), phenoxybenzamine hydrochloride (0.1 mcg/ml), propranolol hydrochloride (3.0 mcg/ml), methysergide maleate (0.2 mcg/ml) and brompheniramine maleate (0.1 mcg/ml) were added to eliminate the possibility of smooth muscle responses being due to stimulation of cholinergic, adrenergic, serotonin or histamine receptors. The fluid was circulated by means of a roller pump and was allowed to drip over the preparations at a rate of 10 ml/minute.
(§2) Test compounds were diluted from stock solutions so as to administer quantities ranging from 0.001 100,000 ng in a volume of 0.5 ml. The compounds were applied by dripping on the uppermost tissue, at intervals of 10 to 20 minutes. Maximal increases in tension after each dose were measured and the results were used to plot dose-response curves. ED50 data (doses necessary to produce a response 50% of maximum) were then calculated graphically for each tissue.
(§3) Activity in each tissue was scored according to the following scale: […]

The next test has as its system Rat Uterus. Kind of test: Effects on the Rat Uterus in Vitro. The test is classed as cell-based. The note with it: for EC50: Rattus norvegicus, in vitro, 29° C, response 50% that of carbachol, read-out: Test F Rat Uterus, Activity Value (ED50). How it is done: The uterine stimulant effect of test compounds was determined in segments of uterus obtained from rats (140-160 g) pretreated subcutaneously with 1 mg/kg of diethyl-stilbesterol 18 hours before the experiment. The tissues were placed in 10 ml chambers filled with de-Jalon solution at 29° C, were aerated and bubbled with 95% O2 and 5% CO2, and were prepared for isometric recording with force displacement transducers. Preparations were stretched to an initial tension of 1 g and were left undisturbed for 30 minutes. Carbachol (1 mcg/ml) was then added to the bath and a response was recorded. After a 10 minute interval the carbachol procedure was repeated. Responses to increasing concentrations of a test compound (0.001 to 10 mcg/ml with one log intervals) were then recorded every 10 minutes. Preparations were washed four times after each response. All doses of compounds were administered in a 0.1 ml volume. Because it has been observed that the magnitude of the second response to carbachol (approximately 10% greater than the first) is close to the maximal response of the tissue, such value was taken as a measure of the sensitivity of a particular segment. Responses to each concentration of the test compound were expressed in terms of percentage of the second response to carbachol and the ED50 (dose producing a response 50% that of carbachol) was calculated graphically. Activity was scored according to the following scale: […]

In a further test the test system is rabbit aortic strip. Kind of test: Cascade Assay, aorta (smooth muscle stimulant effect). It is filed as cell-based. Conditions: superfused, 50% of maximum (PGA2). On the procedure:
as §1, §2, §3

The next test has as its system Gastric Secretion. As to the kind of experiment: Effects on Gastric Secretion in the Rat. The test is classed as in vivo. The note with it: pylorus-ligated rat, subcutaneous, 2 x 1.5 mg/kg (total 3.0 mg/kg), 4 hours. How it is done:
A procedure based on that described by Lipmann (J. Pharm. Pharmacol., 21:335 [1968]) was used to assess the influence of test compounds on gastric secretion. Rats of one sex weighing 150 to 200 g were randomly divided into groups of six animals each and fasted for 48 hours previously to the experiments, water being available adlibitum. The animals were anesthetized with ether, the abdomen was opened through a midline incision and the pylorus was ligated. Test compounds were diluted from stock solution so as to administer a dose of 1.5 mg/kg in a volume equivalent to 1 ml/kg. Subcutaneous injections were applied immediately after surgery and again 2 hours later, so that a total dose of 3.0 mg/kg was administered. Dilutions were made with phosphate buffer (pH 7.38) as recommended by Lee et al. (Prostaglandins 3:29 [1973]), in order to insure adequate stability of drugs at the subcutaneous depot. Each compound was tested in one group of rats; an additional control group received only the vehicle.
Four hours after pyloric ligation the animals were killed with ether, the cardias ligated and the stomachs removed. The volume of gastric secretion was measured and the contents centrifuged at 500 rpm for 10 minutes. Total acid in the supernatant was titrated against a 0.1 N sodium hydroxide solution and the amount expressed in mEq.
Volume and total acid values of the treated group were compared with those of the controls by the "T" test. Antisecretory activity was scored according to the following scale: […]

The test system of the next test is chick rectum. As to the kind of experiment: Cascade Assay, rectum (smooth muscle stimulant effect). The test is classed as cell-based. The note with it: superfused, 50% of maximum (PGE1). How it is done:
as §1, §2, §3

For another test, the system named is rat stomach fundus. As to the kind of experiment: Cascade Assay, stomach (smooth muscle stimulant effect). It is filed as cell-based. The note with it: superfused, 50% of maximum (PGE1). On the procedure:
as §1, §2, §3

Consider `COC(=O)CCC/C=C\C[C@H]1C(=O)CCC[C@@H]1/C=C/[C@@H](O)C1CC2(CCC2)C1` (relative stereo) [TR-4758, dl Methyl-7-{6-ozo-2R-∂3S-hydroxy-3-(spiro[3.3]hept-2-yl)-1E-propenyl]cyclohex-1R-yl}hept-5Z-enoate], for which the “Test E Cascade Assay, Colon, Activity Value (ED50)” value (“Test E Cascade Assay, Colon” below) in the test with rat colon was 0 (>10000). For the same compound, the EC50 in the test on Rat Uterus was more than 10 µg/mL. For the same compound, the “Test E Cascade Assay, Aorta, Activity Value (ED50)” value (“Test E Cascade Assay, Aorta” for short) in the test with rabbit aortic strip is listed as 0 (>10000). In addition, the “Test B Activity Value (% decrease in acidity, inhibition of gastric secretion)” value with Gastric Secretion is on record as 0 (<26). Further, in the test on chick rectum, the “Test E Cascade Assay, Rectum, Activity Value (ED50)” value (from here on “Test E Cascade Assay, Rectum”) is 0 (>10000). Moreover, the “Test E Cascade Assay, Stomach, Activity Value (ED50)” value (shortened to “Test E Cascade Assay, Stomach”) in the test on rat stomach fundus is given as 0 (>10000).

For the compound `COC(=O)CCC/C=C\C[C@H]1C(=O)CCC[C@@H]1/C=C/[C@H](O)C1CC2(CCC2)C1` (relative stereo) [TR-4759, dl Methyl-7-{6-oxo-2R-[3R-hydroxy-3-(spiro[3.3]hept-2-yl)-1E-propenyl]cyclohex-1R-yl}hept-5Z-enoate], the “Test E Cascade Assay, Colon” value in the test with rat colon is on record as 0 (>10000). For the same compound, the EC50 in the test with Rat Uterus was more than 10 µg/mL. Moreover, in the test with rabbit aortic strip, the “Test E Cascade Assay, Aorta” value is 0 (>10000). The “Test B Activity Value (% decrease in acidity, inhibition of gastric secretion)” value in the test on Gastric Secretion is on record as 0 (<26). Further, the “Test E Cascade Assay, Rectum” value with chick rectum is recorded as 0 (>10000). Further, in the test on rat stomach fundus, the “Test E Cascade Assay, Stomach” value is reported as 0 (>10000).

Consider `O=C1C[C@@H](O)[C@H](/C=C/[C@H](O)C2CC3(CCC3)C2)[C@H]1CCCCCCCO` [TR-4713, 7-{3R-hydroxy-5-oxo-2R-[3R-hydroxy-3-(spiro[3.3]hept-2-yl)-1E-propenyl]cyclopent-1R-yl}heptan-1-ol], for which the “Test E Cascade Assay, Colon” value in the test with rat colon is listed as 0 (>10000). Also, the EC50 in the test with Rat Uterus is more than 10 µg/mL. Moreover, the “Test E Cascade Assay, Aorta” value in the test on rabbit aortic strip is listed as 0 (>10000). Besides, in the test on Gastric Secretion, the “Test B Activity Value (% decrease in acidity, inhibition of gastric secretion)” value is recorded as 4 (76-100). Besides, the “Test E Cascade Assay, Rectum” value with chick rectum was 1 (1001 - 10000). Further, in the test on rat stomach fundus, the “Test E Cascade Assay, Stomach” value is on record as 0 (>10000).

As for `CCOC(=O)CCC/C=C\C[C@H]1C(=O)C[C@@H](O)[C@@H]1/C=C/[C@H](O)C1CC2(CCC2)C1` [TR-4726, Ethyl 7-{3R-hydroxy-5-oxo-2R-[3R-hydroxy-3-(spiro[3.3]hept-2-yl)-1E-propenyl]cyclopent-1R-yl}hept-5Z-enoate], the “Test E Cascade Assay, Colon” value in the test with rat colon is reported as 0 (>10000). In the test on Rat Uterus, the EC50 is more than 10 µg/mL. In addition, the “Test E Cascade Assay, Aorta” value with rabbit aortic strip is 0 (>10000). Further, the “Test B Activity Value (% decrease in acidity, inhibition of gastric secretion)” value with Gastric Secretion is 0 (<26). Besides, the “Test E Cascade Assay, Rectum” value with chick rectum is recorded as 0 (>10000). Moreover, the “Test E Cascade Assay, Stomach” value in the test on rat stomach fundus is 0 (>10000).

As to `CCOC(=O)CCC/C=C\C[C@H]1C(=O)C[C@@H](O)[C@@H]1/C=C/[C@@H](O)C1CC2(CCC2)C1` [TR-4727, Ethyl 7-{3R-hydroxy-5-oxo-2R-[3S-hydroxy-3-(spiro[3.3]hept-2-yl)-1E-propenyl]cyclopent-1R-yl}hept-5Z-enoate], the “Test E Cascade Assay, Colon” value in the test with rat colon is on record as 0 (>10000). For the same compound, in the test on Rat Uterus, the EC50 was more than 10 µg/mL. Moreover, the “Test E Cascade Assay, Aorta” value in the test with rabbit aortic strip was 0 (>10000). Further, the “Test B Activity Value (% decrease in acidity, inhibition of gastric secretion)” value with Gastric Secretion is on record as 0 (<26). For the same compound, the “Test E Cascade Assay, Rectum” value in the test with chick rectum is recorded as 0 (>10000). For the same compound, the “Test E Cascade Assay, Stomach” value in the test on rat stomach fundus is on record as 0 (>10000).

Take `CC1([C@@H](O)/C=C/[C@H]2[C@H](O)CC(=O)[C@@H]2CCCCCCCO)CC2(CCC2)C1` [TR-4841, 7-{3R-hydroxy-5-oxo-2R-[3S-hydroxy-3-(2-methylspiro[3.3]hept-2-yl)-1E-propenyl]cyclopent-1R-yl}heptan-1-ol]: in the test on rat colon, the “Test E Cascade Assay, Colon” value is reported as 0 (>10000). Also, the EC50 in the test with Rat Uterus was more than 10 µg/mL. Besides, the “Test E Cascade Assay, Aorta” value with rabbit aortic strip is reported as 0 (>10000). The “Test B Activity Value (% decrease in acidity, inhibition of gastric secretion)” value in the test on Gastric Secretion was 0 (<26). In the test with chick rectum, the “Test E Cascade Assay, Rectum” value is 0 (>10000). Moreover, the “Test E Cascade Assay, Stomach” value in the test with rat stomach fundus was 0 (>10000).

Regarding `COC(=O)CCCCCC[C@H]1C(=O)C[C@@H](O)[C@@H]1/C=C/[C@H](O)C1(C)CC2(CCC2)C1` [TR-4842, Methyl 7-{3R-hydroxy-5-oxo-2R-[3S-hydroxy-3-(2-methylspiro[3.3]hept-2-yl)-1E-propenyl]cyclopent-1R-yl}heptanoate], the “Test E Cascade Assay, Colon” value in the test on rat colon is listed as 0 (>10000). The EC50 in the test on Rat Uterus is more than 10 µg/mL. Further, in the test on rabbit aortic strip, the “Test E Cascade Assay, Aorta” value is given as 0 (>10000). For the same compound, in the test with Gastric Secretion, the “Test B Activity Value (% decrease in acidity, inhibition of gastric secretion)” value is 0 (<26). Further, in the test with chick rectum, the “Test E Cascade Assay, Rectum” value is given as 0 (>10000). Moreover, the “Test E Cascade Assay, Stomach” value in the test with rat stomach fundus was 0 (>10000).

On to `CC1([C@H](O)/C=C/[C@H]2[C@H](O)CC(=O)[C@@H]2CCCCCCCO)CC2(CCC2)C1` [TR-4852, 7-{3R-hydroxy-5-oxo-2R-[3R-hydroxy-3-(2-methylspiro[3.3]hept-2-yl)-1E-propenyl]cyclopent-1R-yl}heptan-1-ol], for which the “Test E Cascade Assay, Colon” value with rat colon is 0 (>10000). Besides, the EC50 with Rat Uterus lay within 0.101 to 1 µg/mL (≈ 0.267 to 2.64 µM). The “Test E Cascade Assay, Aorta” value with rabbit aortic strip is reported as 0 (>10000). For the same compound, in the test with Gastric Secretion, the “Test B Activity Value (% decrease in acidity, inhibition of gastric secretion)” value was 2 (26-50, significant). The “Test E Cascade Assay, Rectum” value in the test on chick rectum is 0 (>10000). In addition, in the test on rat stomach fundus, the “Test E Cascade Assay, Stomach” value is 0 (>10000).

In the case of `C[N+](C)(C)CCOC(N)=O` [carbachol, reference compound], in the test on Rat Uterus (carbachol 1 mcg/ml, second response greater than the first), the “magnitude of second response to carbachol relative to the first” value is listed as “approximately 10%”.
